{
  "source": "patent US7919620B2",
  "about": "“Agent for suppressing blood pressure elevation” (Coral Biotech Kabushiki Kaisha, priority 2005, dated 2011)",
  "type_in_all_cases": "in vivo, rat",
  "key": {"[1]": {"system": "spontaneously hypertensive rats (SHRs)", "test": "Animal Experiment 1 (Example 1): systolic pressure of SHRs given sea water- or Si-added feed", "conditions": "for Systolic pressure of SHRs: mean ± SD", "from_the_text": "In the following examples, spontaneously hypertensive rats (SHRs) were used as experimental animals. The antihypertensive effect of deep sea water was examined by comparison with tap water and surface sea water. […] The samples of the sea water used in the examples were collected by the Deep Seawater Laboratory of Okinawa at a point 3 kilometers off the coast of Kumejima island at depths of 612 m (deep sea water) and 15 m (surface sea water).\n(§1) Seven-week-old male SHRs were divided into 5 groups of 6 to 7 animals. Following 1 week of acclimatization, each group was allowed to feed freely on semi-solid feed for 7 to 8 weeks. The feed given was prepared by adding 40 wt % moisture to powdered feed. To ensure that each SHR would develop hypertension, 1 wt % salt was added to the feed. The animals were allowed to freely drink tap water. Over the course of the test period, each animal was weighed and the feed consumption was measured. Blood pressure was taken from the tail vein every four days between 4 PM and 6 PM. After a 12-hour fasting period, the animals were sacrificed. Serum, liver, and kidney were weighed and subjected to analyses.\n(§2) The sea water added was NaCl-removed deep sea water (DW) or NaCl-removed surface sea water (SW) prepared by dialyzation through an electrodialyzer (Asahi Kasei) until the conductivity of monovalent ions was decreased to 10 mS/cm.\n(§3) The Si concentration in the semi-solid feed containing 40% moisture is defined as the amount of Si contained in 1 kg of the feed."}, "[2]": {"test": "Animal Experiment 1 (Example 1): NaCl, water and feed consumption and body weight of SHRs", "procedure": "as §1, §2, §3"}, "[3]": {"system": "spontaneously hypertensive rats (SHRs)", "test": "Animal Experiment 2 (Example 2): systolic pressure of SHRs given sea water- or Si-added feed", "conditions": "for Systolic pressure of SHRs: mean ± SD", "procedure": "(§4) Twenty-five 7-week-old male SHRs were divided into 5 groups of 5 animals. Four times as much Si as used in Example 1 was added to the feed given to the rats. Otherwise, the animals were tested under the same conditions as in Example 1. Two types of sea water were added to the powder feed: sea water subjected to NaCl-removing treatment by electrical dialysis and ion-exchanged water. The semi-solid feed containing 1.4 wt % NaCl and 40% moisture was prepared by adding the sea water to powdered feed."}, "[4]": {"test": "Animal Experiment 2 (Example 2): NaCl, water and feed consumption and body weight of SHRs", "procedure": "as §4"}},
  "note": "Marks after values point to notes of the source that are not given here.",
  "data": [
    {"smiles": "O.O.O.O.O.O.O.O.O.O=[Si]([O-])[O-].[Na+].[Na+]", "note": "[Si, sodium metasilicate nonahydrate]", "values": [
      {"measurement": "Systolic pressure of SHRs", "setting": "[1]; age 7 W", "value": "151.4 ± 9.8", "unit": "mmHg"},
      {"measurement": "Systolic pressure of SHRs", "setting": "[1]; age 8 W", "value": "163.6 ± 7.7", "unit": "mmHg"},
      {"measurement": "Systolic pressure of SHRs", "setting": "[1]; age 9 W", "value": "165.1 ± 9.2", "unit": "mmHg"},
      {"measurement": "Systolic pressure of SHRs", "setting": "[1]; age 10 W", "value": "173.7 ± 12.2", "unit": "mmHg"},
      {"measurement": "Systolic pressure of SHRs", "setting": "[1]; age 11 W", "value": "184.4 ± 11.2", "unit": "mmHg"},
      {"measurement": "Systolic pressure of SHRs", "setting": "[1]; age 12 W", "value": "188.4 ± 10.7", "unit": "mmHg"},
      {"measurement": "Systolic pressure of SHRs", "setting": "[1]; age 13 W", "value": "194.1 ± 10.4", "unit": "mmHg"},
      {"measurement": "Systolic pressure of SHRs", "setting": "[1]; age 14 W", "value": "193.8 ± 11.3*^1 mmHg"},
      {"measurement": "Difference in magnitude of blood pressure elevation vs control group", "setting": "[1]; age 14 weeks (week 6 of treatment), p<0.05", "value": "about 15 mmHg"},
      {"measurement": "Systolic pressure of SHRs", "setting": "[1]; age 15 W", "value": "195.2 ± 9.8*^2 mmHg"},
      {"measurement": "Antihypertensive effect (blood pressure suppression vs control)", "setting": "[1]; end of test period (15 weeks old)", "value": "approximately 23 mmHg"},
      {"measurement": "Body weight", "setting": "[2]; 8 weeks", "value": "185.0 ± 12.2", "unit": "g"},
      {"measurement": "Body weight, % of Control", "setting": "[2]; 8 weeks", "value": "[98.2%]"},
      {"measurement": "Body weight", "setting": "[2]; 15 weeks", "value": "287.7 ± 14.7", "unit": "g"},
      {"measurement": "Body weight, % of Control", "setting": "[2]; 15 weeks", "value": "[95.7%]"},
      {"measurement": "Systolic pressure of SHRs", "setting": "[3]; age 7 W", "value": "157 ± 8", "unit": "mmHg"},
      {"measurement": "Systolic pressure of SHRs", "setting": "[3]; age 8 W", "value": "166 ± 12", "unit": "mmHg"},
      {"measurement": "Systolic pressure of SHRs", "setting": "[3]; age 9 W", "value": "168 ± 4", "unit": "mmHg"},
      {"measurement": "Systolic pressure of SHRs", "setting": "[3]; age 10 W", "value": "167 ± 7", "unit": "mmHg"},
      {"measurement": "Systolic pressure of SHRs", "setting": "[3]; age 11 W", "value": "172 ± 7", "unit": "mmHg"},
      {"measurement": "Systolic pressure of SHRs", "setting": "[3]; age 12 W", "value": "179 ± 4", "unit": "mmHg"},
      {"measurement": "Systolic pressure of SHRs", "setting": "[3]; age 13 W", "value": "179 ± 1*^1 mmHg"},
      {"measurement": "Systolic pressure of SHRs", "setting": "[3]; age 14 W", "value": "181 ± 3*^1 mmHg"},
      {"measurement": "Antihypertensive effect (difference in systolic pressure from the control)", "setting": "[3]; end of test period (14 weeks old), p<0.05", "value": "approximately 10 mmHg"},
      {"measurement": "Body weight", "setting": "[4]; 8 week", "value": "200.3 ± 15.3", "unit": "g"},
      {"measurement": "Body weight, % of Control", "setting": "[4]; 8 week", "value": "[97.6%]"},
      {"measurement": "Body weight", "setting": "[4]; 14 week", "value": "303.4 ± 22.6", "unit": "g"},
      {"measurement": "Body weight, % of Control", "setting": "[4]; 14 week", "value": "[102.4%]"}
    ]}
  ]
}
